Key:
Enterobacter aerogenes [1] = experiment: RSS-24, EPA Protocol #01-1A residual self-sanitizing activity test (6 abrasion cycles); format: cell-based; conditions: Table 5, 150 microliters, stainless steel
Description: In order to substantiate 24 hour long-term sanitization claims with the United States Environmental Protection Agency (EPA), compositions are evaluated with the residual self-sanitization (RSS) method, EPA Protocol #01-1A (https://www.epa.gov/sites/production/files/2015-09/documents/cloroxpcol_final.pdf). For validating longer term disinfection, all extant test protocols emulate the maximum amount of recontamination and abrasion by touching and wiping anticipated before reapplication, typically a 24 hour period. An intermediate protocol with approximately half the level abrasion and re-soiling challenge to a surface is presented here as the “RSS-12 h” test protocol. […]
The test substrate is allowed to dry overnight and then finally inoculated again (sanitizer test) for 5 minutes, followed by neutralization of the entire substrate. […] Surviving bacteria are then counted as the number of colonies. […]
Formula C was then further evaluated by (EPA) Protocol #01-1A residual self-sanitizing activity test with 6 alternating abrasion cycles (wet and dry each) for a 24 hour claim. […] When evaluated with 150 microliters of Formula C on a (1×1) steel substrate with Enterobacter aerogenes, >3 LR were achieved as required by the test (Table 5), indicating a pass for RSS-24.

Enterobacter aerogenes [2] = experiment: RSS-12 h residual self-sanitizing test (modified EPA Protocol #01-1A, 3 wear cycles); format: cell-based; conditions: 150 microliters
Description: In order to substantiate 24 hour long-term sanitization claims with the United States Environmental Protection Agency (EPA), compositions are evaluated with the residual self-sanitization (RSS) method, EPA Protocol #01-1A (https://www.epa.gov/sites/production/files/2015-09/documents/cloroxpcol_final.pdf). For validating longer term disinfection, all extant test protocols emulate the maximum amount of recontamination and abrasion by touching and wiping anticipated before reapplication, typically a 24 hour period. An intermediate protocol with approximately half the level abrasion and re-soiling challenge to a surface is presented here as the “RSS-12 h” test protocol.
Long lasting disinfection claims are substantiated by the RSS test, which challenges the applied composition by subjecting it to recontamination (re-inoculation with microorganisms) and abrasion (wear cycles). An intermediate test protocol, with approximately half the number of re-inoculations and wear cycles (“RSS-12 h”) is used to predict disinfection that is durable up to 12 hours before reapplication of the test product. As outlined in FIG. 1, this procedure requires preparation of the test bacterial (microbial) culture over the first week (see EPA Protocol #01-1A) followed by testing in week 2.
The testing involves inoculating the surface with bacteria, followed by application of the product on the substrate and allowing it to dry. The substrate may be glass, polycarbonate, or steel. This substrate is then subjected to an abrasion—re-inoculation regime of 3 “wear cycles”. The abrasion is conducted with a 1084 gwt. rectangular steel block covered with a cloth with an underlying thin polyurethane-foam layer. Each wear cycle is composed of a “dry” abrasion and a “wet” abrasion, the latter with the cloth cover having been wet with a mist of water using a Preval® sprayer. Each abrasion (dry/wet) is characterized by a back and forth motion of the block across the test substrate. Each abrasion cycle is followed by re-inoculation the surface with a bacterial culture. The RSS-12 h involves a 3-abrasion cycle/3-inoculations test as compared to the full RSS test that outlines a 6-abrasion cycle/6-inoculation test regimen. All other details of the test method are as outlined in the EPA Protocol #01-1A.
The test substrate is allowed to dry overnight and then finally inoculated again (sanitizer test) for 5 minutes, followed by neutralization of the entire substrate. Surviving bacteria is then harvested off the surface and cultured with serial dilutions on agar plates, allowing colony formation over 24-48 hours. Surviving bacteria are then counted as the number of colonies. […] The bacteria in this test may be substituted for other microorganisms such as fungi or viruses. In an embodiment, microorganisms are selected from gram-positive bacteria (e.g Staphylococcus aureus), gram-negative bacteria (e.g. Enterobacter aerogenes), fungi, enveloped viruses, non-enveloped viruses, and combinations thereof.
Films prepared from Formula C were evaluated using RSS-12 h protocol as described above, a modified version the residual self-sanitization (RSS) method, EPA Protocol #01-1A. Protocol #01-1A is a method approved by the EPA for measuring long-term sanitization claims (i.e., “kill later” durability claim). Protocol #01-1A, the entire contents of which are incorporated by reference, measures the residual self-sanitizing activity of dried chemical residues (films) on inanimate, hard, non-porous surfaces against bacteria: Staphylococcus aureus, Klebsiella pneumoniae, and/or Enterobacter aerogenes. In particular, surfaces are inoculated, treated with test product, allowed to dry, then abraded under alternating wet and dry conditions, which are interspersed with several re-inoculations. (FIG. 1).
The test shown in Table 3 was conducted on a steel substrate (1 inch×1 inch) with Enterobacter aerogenes, a gram negative bacteria which is typically more resistant. […]

[3] = Table 4, reduced quat content, stainless steel

Triton X-100 gave an Avg. cfu/carrier (Enterobacter aerogenes [1]) of 1.85E+07 cfu/carrier, a Log (Enterobacter aerogenes [1]) of 7.27 and a Log (Enterobacter aerogenes [2]; Table 3, log of surviving cfu, stainless steel) of 6.48. It also gave an Avg. cfu/carrier (Enterobacter aerogenes [2]; Table 3, stainless steel) of 3.00E+06 cfu/carrier, a geom. mean (Enterobacter aerogenes [2]; Table 3, stainless steel) of 6.48 and an Avg. cfu/carrier (Enterobacter aerogenes [2]; [3]) of 1.29E+06 cfu/carrier. For the same substance, the Log (Enterobacter aerogenes [2]; [3]) was 6.11 and the avg. cfu/surface (Enterobacter aerogenes [2]; stainless steel 1 inch x 1 inch, surviving population after final inoculation, triplicate) was 3.00E+06 cfu/surface.

— patent US11497210B2, “Compositions and methods for long lasting disinfection” (RHODIA OPERATIONS, priority 2018, dated 2022)
